# Measured values taken from article PMC11099041, “Tissue distribution and retention drives efficacy of rapidly clearing VHL-based PROTACs” (Communications Medicine, 2024).
# Where “and” joins values, the source holds several entries; their conditions need not be identical. Equal values may be shown once.
# Columns and labels:
# CYP3A4/5 = experiment: Reversible P450 inhibition in HLM; type: biochemical; details: human, human liver microsomes
# Experimental: The reversible P450 inhibition assay was conducted in triplicate on a BioCel 1200 System, V11 (Agilent, CA), as previously described by Kosaka, et al.[28] […] […] P450 activity was expressed as the peak area ratio of a P450-specific metabolite formed relative to its internal standard, and inhibition percentage was calculated from P450 activity of samples relative to the solvent control. Inhibition data were processed using Prism (GraphPad Software, San Diego, CA) to calculate IC50 values for each P450 enzyme.
# [1] = Body weight in mouse efficacy study; type: in vivo; details: in g (unit assumed)
# Experimental: Female C.B-17 SCID (Inbred) mice that weighed 16–20 g were inoculated with 10 million HCC2302 lung adenocarcinoma cells (suspended in a mixture of Hank’s Balanced Salt Solution containing Matrigel at a 1:1 ratio) in the right flank subcutaneously. Tumors were monitored until they reached a mean tumor volume of 110–167 mm^3. The mean tumor volume across all three groups was 141 ± 16.64 mm^3 (mean ± SD) at the initiation of dosing (Study WF-31, n = 10). […] Tumor volumes were measured in two dimensions (length and width) using Ultra Cal-IV calipers. The tumor volume was calculated with the following formula: Tumor size (mm^3) = (longer measurement × shorter measurement^2)/2. Animal body weights were measured using an Adventura scale. Percent weight change was calculated using the following formula: Group percent weight change = (new weight − initial weight)/ initial weight) × 100%.
# In a separate study, tumors were monitored until they reached a mean tumor volume of 121–159 mm^3. The mean tumor volume across all three groups was 138 ± 10.26 mm^3 (mean ± SD) at the initiation of dosing (Study WF-34, n = 10).
# CYP2C9 = target: T1, CYP2C9 (Homo sapiens, UniProt P11712); experiment: Reversible P450 inhibition in HLM; type: biochemical; details: human liver microsomes, pH 7.4, probe S-(-)-warfarin
# T1 construct: phosphate buffer (100 mM, pH 7.4) containing human liver microsomes (HLM); from tissue; host or cells: human liver microsomes
# Experimental: (§1) The reversible P450 inhibition assay was conducted in triplicate on a BioCel 1200 System, V11 (Agilent, CA), as previously described by Kosaka, et al.[28] […] Individual P450 specific substrates included midazolam for CYP3A4/5, dextromethorphan for CYP2D6, S-(+)-mephenytoin for CYP2C19, S-(-)-warfarin for CYP2C9, paclitaxel for CYP2C8, and tacrine for CYP1A2. P450 activity was expressed as the peak area ratio of a P450-specific metabolite formed relative to its internal standard, and inhibition percentage was calculated from P450 activity of samples relative to the solvent control. Inhibition data were processed using Prism (GraphPad Software, San Diego, CA) to calculate IC50 values for each P450 enzyme.
# CYP2C19 = target: T2, CYP2C19 (Homo sapiens, UniProt P33261); experiment: Reversible P450 inhibition in HLM; type: biochemical; details: substrate Mephenytoin
# T2 construct: phosphate buffer (100 mM, pH 7.4) containing human liver microsomes (HLM); from tissue; host or cells: human liver microsomes
# Experimental: as §1
# CYP1A2 = target: T3, CYP1A2 (Homo sapiens, UniProt P05177); experiment: Reversible P450 inhibition in HLM; type: biochemical; details: human liver microsomes, pH 7.4, probe tacrine, substrate Tacrine
# T3 construct: phosphate buffer (100 mM, pH 7.4) containing human liver microsomes (HLM); from tissue; host or cells: human liver microsomes
# T3 sequence (P05177 1-516): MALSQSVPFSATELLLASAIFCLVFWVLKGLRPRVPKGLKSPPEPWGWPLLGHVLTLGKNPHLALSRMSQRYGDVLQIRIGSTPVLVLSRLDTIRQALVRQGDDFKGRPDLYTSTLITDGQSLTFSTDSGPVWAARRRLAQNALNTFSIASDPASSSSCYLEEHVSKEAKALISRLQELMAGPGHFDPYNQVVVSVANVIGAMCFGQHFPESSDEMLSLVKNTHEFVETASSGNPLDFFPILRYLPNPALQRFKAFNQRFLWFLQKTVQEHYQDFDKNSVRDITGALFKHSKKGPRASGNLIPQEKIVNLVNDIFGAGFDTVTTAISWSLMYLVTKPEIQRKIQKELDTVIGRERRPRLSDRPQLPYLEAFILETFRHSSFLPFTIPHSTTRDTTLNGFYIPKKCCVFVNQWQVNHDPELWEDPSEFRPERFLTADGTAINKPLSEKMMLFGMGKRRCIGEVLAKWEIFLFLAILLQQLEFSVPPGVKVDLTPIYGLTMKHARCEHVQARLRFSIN
# Experimental: as §1
# [2] = In vitro metabolism in human hepatocytes; details: incubations with hepatocytes and microsomes of rats and humans
# Experimental: Hepatocyte cell count was ~1.1–1.8 × 10^6 cells/mL. After 3 h, samples were quenched with 3 volumes of acetonitrile, vortex mixed, and centrifuged. The supernatant (5 µL) was analyzed by LC-MS using a Kinetex EVO C18 column (1.7 μm, 2.1 × 150 mm) at 40 °C with a flow rate of 0.4 mL/min. Mobile phase A was 20 mM ammonium acetate in water, and mobile phase B was acetonitrile. The column was initially held at 5% B for 2 min, increased to 75% B over 33 minutes, and then increased to 95% B over 3 min, where it was maintained for 3 minutes before returning to 5% B over 0.5 min for re-equilibration. Mass spectrometry data was acquired using positive ion mode and data-dependent MS^2 acquisition.
# [3] = Metabolite profiling in rat bile, urine and feces (radio-HPLC, LC-HRMS); type: in vivo; details: in vivo, iv, 4 mg/kg
# Experimental: Tissue homogenate samples at 24 hours were extracted as plasma samples. […] The pooled urine samples containing 10% MeOH were analyzed by liquid chromatography-high resolution mass spectrometry (LC-HRMS).
# The pooled bile sample containing 10% MeOH was analyzed by LC-HRMS.
# Feces samples obtained from BDC and intact rats were pooled separately across time intervals for each animal (5% w/v) and further pooled across animals for each group to generate a 0–68 hour pooled sample. Approximately 1–2 g of each pooled feces sample was extracted as the same protocol used for plasma samples. […] The reconstituted samples were analyzed by LC-HRMS.
# The reconstituted samples were analyzed by LC-HRMS, with eluent fractions collected at 10-second intervals into 96-well plates containing solid scintillant. Radioactivity in each well was determined using TopCount analysis, and radiochemical profiles were generated based on radioactivity counts. Structural elucidation was performed based on mass spectral interpretation to identify metabolites.
# For metabolite profiling and identification, LC-MS analysis used a Shimadzu/Nexera LC-30 AD liquid chromatographic system and a ThermoFisher Scientific Q Exactive with a positive/negative heated electrospray interface. The column was a Waters XSelect HSS T3 4.6 mm × 250 mm, 3.5 µm and maintained at 40 °C. The mobile phases were (A) 20 mM ammonium acetate in water and (B) acetonitrile. […] The flow was 1 mL/min and split 20% to mass analysis and 80% collected for radioactivity counting. Mass spectrometry data was acquired with full scans at a resolution of 70,000 for a m/z range of 300 to 1500, and MS/MS scans were acquired at a resolution of 17,500. The mass spectrometer was operated with a normalized collision energy of 30 (ESI+), S-Lens RF level of 60, source voltage of +3.5 kV, Capillary temperature of 320 °C, and Probe heater temperature of 300 °C.
# T2 sequence (P33261 whole entry): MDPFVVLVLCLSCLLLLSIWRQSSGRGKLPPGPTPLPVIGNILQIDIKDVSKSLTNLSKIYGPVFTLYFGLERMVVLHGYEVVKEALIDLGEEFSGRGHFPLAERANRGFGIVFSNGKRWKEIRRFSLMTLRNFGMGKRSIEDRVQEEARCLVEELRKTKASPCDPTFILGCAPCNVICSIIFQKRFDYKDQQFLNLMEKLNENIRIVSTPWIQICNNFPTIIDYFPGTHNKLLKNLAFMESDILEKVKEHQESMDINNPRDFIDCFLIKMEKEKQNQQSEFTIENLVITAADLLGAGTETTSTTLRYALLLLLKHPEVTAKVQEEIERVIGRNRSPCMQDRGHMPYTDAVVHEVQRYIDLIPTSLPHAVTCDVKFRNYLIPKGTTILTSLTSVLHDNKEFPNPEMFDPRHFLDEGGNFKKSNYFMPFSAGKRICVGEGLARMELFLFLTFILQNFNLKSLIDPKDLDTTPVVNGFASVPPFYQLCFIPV
# T1 sequence (P11712 whole entry): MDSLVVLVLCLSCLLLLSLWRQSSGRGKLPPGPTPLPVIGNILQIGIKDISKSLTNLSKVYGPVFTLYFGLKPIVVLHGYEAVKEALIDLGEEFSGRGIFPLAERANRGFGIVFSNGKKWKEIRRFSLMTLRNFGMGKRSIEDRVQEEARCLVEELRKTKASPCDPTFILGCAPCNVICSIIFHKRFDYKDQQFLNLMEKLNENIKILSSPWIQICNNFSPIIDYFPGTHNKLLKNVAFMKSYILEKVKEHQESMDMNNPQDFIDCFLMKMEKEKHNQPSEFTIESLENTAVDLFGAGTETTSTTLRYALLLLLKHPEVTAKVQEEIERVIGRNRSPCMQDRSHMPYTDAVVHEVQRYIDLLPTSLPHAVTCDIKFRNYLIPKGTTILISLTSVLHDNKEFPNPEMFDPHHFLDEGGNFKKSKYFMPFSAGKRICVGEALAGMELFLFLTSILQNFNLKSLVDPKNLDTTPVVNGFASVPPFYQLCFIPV
smiles,measurement,setting,value
Cc1ncsc1-c1ccc(C(C)NC(=O)C2CC(O)CN2C(=O)C(c2cc(N3CCC(CN4CCC(OC5CC(Oc6cc(N7C8CCC7CN(c7cc(-c9ccccc9O)nnc7N)C8)ccn6)C5)CC4)CC3)no2)C(C)C)cc1 (stereo not shown) [A947],IC50,"CYP3A4/5; pH 7.4, probe midazolam, substrate Midazolam",0.54 µM
same,IC50,"CYP3A4/5; pH 7.4, probe testosterone, substrate Testosterone",> 10 µM
same,Body weight (mean),"[1]; WF-31, 20 mg/kg IV QW, day 0, 3, 7, 10, 13, 14, 21",19.00 and 19.30 and 19.20 and 19.50
same,Body weight (mean),"[1]; WF-31, 40 mg/kg IV QW, day 0, 3, 7, 10, 13, 14, 21",18.67 and 18.78 and 18.56 and 17.67 and 19.40 and 18.60
same,Body weight (mean),"[1]; WF-34, 40 mg/kg IV QW, day 0, 4, 8, 11, 15, 18, 22, 25, 29",21.10 and 20.20 and 21.22 and 21.33 and 21.89 and 20.33 and 21.25 and 21.50
same,IC50,CYP2C9,> 10 µM
same,IC50,"CYP2C19; human, human liver microsomes, pH 7.4, probe S-(+)-mephenytoin",3 µM
same,IC50,CYP2C19,~3 µM
same,IC50,CYP1A2,> 10 µM
same,Compound metabolized,[2],< 10%
Cc1ncsc1-c1ccc(C(C)NC(=O)C2CC(O)CN2C(=O)C(c2cc(N3CCC(CN4CCC(OC5CC(Oc6cc(N7C8CCC7CN(c7cc(-[14c]9[14cH][14cH][14cH][14cH][14c]9O)nnc7N)C8)ccn6)C5)CC4)CC3)no2)C(C)C)cc1 (stereo not shown) [14C-A947],%Rad in bile,[3],23.11%
same,%rad in feces,[3],18.95%
same,%rad in urine,[3],20.6%
